The target of one assay is T1, enkephalinase (Rattus norvegicus, UniProt P07861).
T1 construct: from tissue; host or cells: rat kidney, renal membrane fraction solubilised with octyl beta-D-glucopyranoside (100,000 g supernatant)
T1 sequence (P07861 1-750): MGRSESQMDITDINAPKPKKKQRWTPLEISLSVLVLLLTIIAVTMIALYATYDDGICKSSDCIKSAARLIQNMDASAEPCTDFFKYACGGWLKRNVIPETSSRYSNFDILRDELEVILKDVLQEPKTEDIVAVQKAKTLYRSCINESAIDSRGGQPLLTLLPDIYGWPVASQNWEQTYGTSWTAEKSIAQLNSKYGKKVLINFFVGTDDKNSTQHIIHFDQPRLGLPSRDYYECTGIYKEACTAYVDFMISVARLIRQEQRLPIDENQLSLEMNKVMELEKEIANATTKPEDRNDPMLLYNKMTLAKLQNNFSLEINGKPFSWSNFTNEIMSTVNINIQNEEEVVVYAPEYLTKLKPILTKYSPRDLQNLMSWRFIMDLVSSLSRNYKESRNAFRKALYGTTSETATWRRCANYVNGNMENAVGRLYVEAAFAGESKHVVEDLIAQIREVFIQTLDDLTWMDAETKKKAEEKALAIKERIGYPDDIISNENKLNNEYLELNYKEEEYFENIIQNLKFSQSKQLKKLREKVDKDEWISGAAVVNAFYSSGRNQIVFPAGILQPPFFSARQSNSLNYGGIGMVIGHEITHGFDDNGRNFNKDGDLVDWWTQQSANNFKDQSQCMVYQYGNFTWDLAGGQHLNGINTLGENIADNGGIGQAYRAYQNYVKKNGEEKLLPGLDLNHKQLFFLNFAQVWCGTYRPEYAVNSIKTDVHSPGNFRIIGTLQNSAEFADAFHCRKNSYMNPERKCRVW
Briefly: Determination of the enkephalinase inhibiting effect. As to conditions: renal membrane fraction of a rat; substrate Succinyl-Ala-Ala-Phe-amino-methylcoumarine; 37° C., 30 minutes, pH 7.5. The format is biochemical. The protocol:
1) Determination of the enkephalinase inhibiting effect
The enkephalinase activity was determined from a renal membrane fraction of a rat. The kidneys were removed on ice and homogenized in a HEPES 0.05M pH 7.5 buffer containing magnesium chloride (50 times the volume). After a first centrifugation at 1,500 g, the specific fraction was obtained from a centrifugation at 15,000 g for 20 minutes. The deposit was then washed and suspended in a HEPES buffer and kept at -20° C. An aliquot of this membrane preparation was put in the presence of octyl beta-D-glucopyranoside (50 mM as final […]) for 15 minutes at 4° C. After centrifugation at 100,000 g for one hour, the supernatant was removed and frozen in aliqots at -20° C. The concentration of proteins was determined by the method using Comassie's blue.
An aliquot of the protein fraction thus prepared was preincubated at 25° C. for 10 minutes in a HEPES 0.05M pH 7.5 buffer or in the presence of the product to be studied. The substrate added was a non-natural enkephalin of formula Succinyl-Ala-Ala-Phe-amino-methylcoumarine (reference 1) (40mM as final concentration). The incubation continued at 37° C. for 30 minutes and then the reaction was stopped by heating to 95° C. for 5 minutes and each incubate was centrifuged. A solution of amino peptidase M (4 mM as final concentration) and thiorphan (reference 2) (10^-5 M) was added to the supernatant and the mixture was taken to 37° C. for one hour. The reaction was stopped as previously described and the fluorescence of 7-amino-methyl-coumarine produced was determined. The effect of the products to be tested was determined by calculating the IC50, the concentration which inhibited the hydrolysis of the substrate by 50%.
Reference 1: R. A. Munford, P. A. Pierzchala, A-W Strauss and M. Zimmerman, Purification of a membrane-bound metalloendo peptidase from porcine kidney that degrades peptides hormones. Proc. Natl. Acad. Sci 78, No. 11, p. 6623.
Reference 2: Inhibitor of enkephalinase described in Example 20 of French Patent No. 2,480,747.

The nature of assay [1]: Stretchings caused by acetic acid in a mouse (analgesic activity). The assay is classed as in vivo. As to conditions: 0.25 h, PO, half-an-hour before intraperitoneal acetic acid, 15 minutes observation, read-out: DA50 (dose which allows a decrease of 50% in the number of stretchings). The protocol:
2) Study of analgesic activity in a mouse Stretchings caused by acetic acid in a mouse
The test used was based on the fact indicated by KOSTER, et al [Fed. Proc. (1959), Vol. 1B, p. 412] according to which the intraperitoneal injection of acetic acid causes, in a mouse, repeated stretching and twisting movements which can persist for more than 6 hours. Analgesics prevent or lessen this syndrome which can be considered as the outward display of a widespread abdominal pain. A 1% solution of acetic acid in water was used and was administered at a volume of 10 ml/kg. The studied product was administered by buccal route half-an-hour before the acetic acid injection, the mice having gone without food for at least 6 hours. The stretchings were observed and counted for Each mouse for an observation period of 15 minutes. The results were expressed by means of the DA50, that is the dose which allows a decrease of 50% in the number of stretchings to be obtained relative to the control animals.

The next assay can be described thus: Hot-plate test. The format is in vivo. Conditions: Mus musculus, 0.5 h, po, male mice, plate at 56° C., 30 minutes after oral administration; for ED50: read-out: DA50 (dose which increased the reaction time by 50%); for ED100: read-out: DA100 (dose which increased the reaction time by 100%). The protocol: Male mice weighing 22 g were placed individually on a copper plate maintained at 56° C. by a thermostatically-controlled water bath. […] The reaction time to the heat stimulus was noted and only animals reacting within 4.5 and 6.5 seconds were retained. The reaction time to the pain was measured 30 minutes after oral administration. The variations in the reaction time were expressed as a percentage of the initial time. The DA50 and DA100, or doses which increased the reaction time by 50 and 100%, taking into account variations in the control group, were determined by a graph or by the method of the least squares.

Each structure is given as a SMILES string.

For `CN(O)C(=O)NC(CS)Cc1ccccc1` (single isomer, unassigned; (+)) [Example 6, (+) N-hydroxy-N'-[2-mercapto-1-(phenylmethyl)-ethyl]-N-methyl urea], the midpoint of inhibition at enkephalinase, the IC50, lay at 3.5 nM. On to `O=C(Nc1ccccc1)NC(CS)Cc1ccccc1` (single isomer, unassigned; (+)) [Example 16], for which the ED50 in assay [1] was determined as 50 mg/kg. The compound further displayed a half-maximal inhibitory concentration (IC50) against enkephalinase of 70 nM. For `CCCN(CCC)C(=O)NC(CS)Cc1ccccc1` (single isomer, unassigned; (+)) [Example 18, (+) N,N-dipropyl-N'-[2-mercapto-1-(phenylmethyl)-ethyl]urea], in assay [1], the ED50 worked out at 33 mg/kg. In addition, the half-maximal inhibitory concentration (IC50) against enkephalinase came to 180 nM. In the assay “Hot-plate test”, the ED50 stood at 33 mg/kg and the ED100 amounted to 100 mg/kg. Turning to `CONC(=O)NC(CSC(C)=O)Cc1ccccc1` (stereo not drawn) [Example 1, S-[2-(3-methoxy-ureido)-3-phenyl-propyl]-ethanethioate], the ED50 in assay [1] amounted to 71 mg/kg. The compound also came in with an IC50 on enkephalinase of 87 nM.

In the case of `CC(=O)SCC(Cc1ccccc1)NC(=O)N(C)O` (stereo not drawn) [Example 5], in “Hot-plate test”, the ED50 turned out to be 100 mg/kg and the ED100 was 200 mg/kg. As for `COC(=O)CNC(=O)NC(CSC(C)=O)Cc1ccccc1` (stereo not drawn) [Example 11, Methyl N-[[[2-(acetylthio)-1-(phenylmethyl)-ethyl]-amino]-carbonyl]-glycinate], the ED50 in assay [1] was found to be 85 mg/kg; in the assay “Hot-plate test”, 100 mg/kg.

Consider `CC(=O)SCC(Cc1ccccc1)NC(=O)Nc1ccccc1` (stereo not drawn) [Example 15, S-[2-(3-phenyl-ureido)-3-phenylpropyl]ethanethioate], for which half-maximal inhibition against enkephalinase (IC50) required 100 nM. The same measure, in the same setting: then `CCCN(CCC)C(=O)NC(CSC(C)=O)Cc1ccccc1` (stereo not drawn) [Example 17, S-[2-[3-bis(propyl)-ureido]-3-phenyl-propyl]-ethanethioate], with 48 nM.

The term IC50 denotes the concentration needed to halve the response being measured.

Source of the values: patent publication US5674864A, “N-substituted derivatives of α-mercapto alkylamines, their preparation process and the intermediates obtained, their use as medicaments and the compositions containing them” (Roussel Uclaf, priority 1990, dated 1997).
